Experimental data taken from patent US8188098B2, “GPR119 receptor agonists” (Hoffmann-La Roche Inc., priority 2008, dated 2012).

Each molecule was assayed against T1, GPR119 receptor (Mesocricetus auratus, UniProt A0A1U8CD06) (assay: cAMP assay in HIT-T15 hamster pancreatic islet cells (functional agonist activity)). Settings: HIT-T15 cells endogenously expressing GPR119; 30 min at 25° C.; intracellular cAMP.
T1 construct: which endogenously express the GPR119 receptor; host or cells: HIT-T15 hamster pancreatic islet cells
T1 sequence (A0A1U8CD06 1-334): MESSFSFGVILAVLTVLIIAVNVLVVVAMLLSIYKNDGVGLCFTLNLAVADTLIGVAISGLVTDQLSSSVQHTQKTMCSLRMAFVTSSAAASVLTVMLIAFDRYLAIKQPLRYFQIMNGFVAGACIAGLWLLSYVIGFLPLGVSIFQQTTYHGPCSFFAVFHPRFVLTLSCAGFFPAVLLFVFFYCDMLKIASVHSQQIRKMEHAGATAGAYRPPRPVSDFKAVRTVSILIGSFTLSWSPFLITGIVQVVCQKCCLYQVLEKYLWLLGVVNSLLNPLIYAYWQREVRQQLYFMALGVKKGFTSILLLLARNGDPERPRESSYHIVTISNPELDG
Format: cell-based
Method: The functional agonist activities of compounds of the invention were characterized using a cAMP assay in HIT-T15 hamster pancreatic islet cells (American Type Culture Collection, Manassas, Va., USA) which endogenously express the GPR119 receptor. The cells were cultured in Kaighn's modification of Ham's F12 medium (Invitrogen Corporation, Carlsbad, Calif., USA) containing 10% horse serum, 2.5% FBS, and 1% Pen/Strep and grown in 225 cm^2 tissue culture flasks until they reached 75-85% confluence.
The cells were harvested 24 h prior to assay with 5 ml Versene®, washed with Kaighn/F12 medium and then plated into white 384-well plates (9000 cells/well) containing Kaighn/F12 medium. Prior to assay, the culture medium was replaced with a Kaighn/F12 medium without phenol red (50 μL/well) containing 0.5 mM 3-isobutyl-1-methylxanthine, 0.5 mg/ml BSA. The cells were incubated in the dark for 30 min at 25° C. in the absence or presence of varying concentrations of agonist (1 μL, 100% DMSO). The incubation media was discarded and replaced with the assay lysis buffer (50 μL/well) provided in the Tropix cAMP-Screen® kit (Applied Biosystems, Foster City, Calif., USA) and the plates incubated for 45 min at 37° C. The intracellular levels of cAMP generated in the HIT-T 15 cells were measured using the Tropix kit. In brief, 20 μL of the lysate was transferred into pre-coated antibody plates (384-well; Tropix kit) along with 10 μL of alkaline phosphatase conjugate and 20 μL of anti-cAMP antibody and the plates were incubated for 1 h at room temperature while shaking. The plates were then washed 5 times with wash buffer (70 μL) and tapped dry. CSPD®/Sapphire-II™ RTU substrate/enhancer solution (Applied Biosystems, Foster City, Calif., USA; 30 μL) was added and the plates were incubated for 45 min at room temperature while shaking. The signal generated was measured using a Wallac Victor V Luminometer (PerkinElmer Life And Analytical Sciences, Inc., Waltham, Mass., USA; 1 sec/well). EC50 values were calculated using the XLFit program (ID Business Solutions Ltd., Guildford, Surrey, UK).

Which EC50 does the source give for `C[S+]([O-])c1ccc(Oc2ncnc3c2cnn3C2CCN(C(=O)OC(C)(C)C)CC2)cc1` (stereo not drawn) [Example 58, 4-[4-(4-Methanesulfinyl-phenoxy)-pyrazolo[3,4-d]pyrimidin-1-yl]-piperidine-1-carboxylic acid tert-butyl ester] here?
Its EC50 is 0.42 µM.

`CC(C)(C)OC(=O)N1CCC(n2ncc3c(Oc4ccc(S(C)(=O)=O)cc4)ncnc32)CC1` [Example 59, 4-[4-(4-Methanesulfonyl-phenoxy)-pyrazolo[3,4-d]pyrimidin-1-yl]-piperidine-1-carboxylic acid tert-butyl ester] was tested. Which EC50 did it give?
Its EC50 is 0.043 µM.

For `CC(C)(C)OC(=O)N1CCC(n2ncc3c(Oc4ccc(S(C)(=O)=O)cc4F)ncnc32)CC1` [Example 60, 4-[4-(2-Fluoro-4-methanesulfonyl-phenoxy)-pyrazolo[3,4-d]pyrimidin-1-yl]-piperidine-1-carboxylic acid tert-butyl ester], which EC50 is on record?
The EC50 was 0.048 µM.

With `CC(C)(C)OC(=O)N1CCC(n2ncc3c(Oc4ccc(S(C)(=O)=O)c(F)c4)ncnc32)CC1` [Example 61, 4-[4-(3-Fluoro-4-methanesulfonyl-phenoxy)-pyrazolo[3,4-d]pyrimidin-1-yl]-piperidine-1-carboxylic acid tert-butyl ester] as the molecule, how does the EC50 read?
The EC50 was 0.095 µM.

`CC(C)(C)OC(=O)N1CCC(n2ncc3c(Oc4ccc(C(N)=O)cc4)ncnc32)CC1` [Example 62, 4-[4-(4-Carbamoyl-phenoxy)-pyrazolo[3,4-d]pyrimidin-1-yl]-piperidine-1-carboxylic acid tert-butyl ester] was tested. Which EC50 did it give?
Its EC50 is 0.65 µM.

How did the EC50 turn out when `COC(=O)c1ccc(Oc2ncnc3c2cnn3C2CCN(C(=O)OC(C)(C)C)CC2)c(F)c1` [Example 63, 4-[4-(2-Fluoro-4-methoxycarbonyl-phenoxy)-pyrazolo[3,4-d]pyrimidin-1-yl]-piperidine-1-carboxylic acid tert-butyl ester] was run?
Its EC50 is 0.42 µM.

For `CC(=O)c1ccc(Oc2ncnc3c2cnn3C2CCN(C(=O)OC(C)(C)C)CC2)cc1` [Example 64, 4-[4-(4-Acetyl-phenoxy)-pyrazolo[3,4-d]pyrimidin-1-yl]-piperidine-1-carboxylic acid tert-butyl ester], which EC50 is on record?
Its EC50 is 0.15 µM.

For `CC(=O)c1ccc(Oc2ncnc3c2cnn3C2CCN(C(=O)OC(C)(C)C)CC2)cc1C` [Example 65, 4-[4-(4-Acetyl-3-methyl-phenoxy)-pyrazolo[3,4-d]pyrimidin-1-yl]-piperidine-1-carboxylic acid tert-butyl ester], which EC50 is on record?
The EC50 was 0.31 µM.

How did the EC50 turn out when `CC(C)(C)OC(=O)N1CCC(n2ncc3c(Oc4ccc([N+](=O)[O-])cc4F)ncnc32)CC1` [Example 66, 4-[4-(2-Fluoro-4-nitro-phenoxy)-pyrazolo[3,4-d]pyrimidin-1-yl]-piperidine-1-carboxylic acid tert-butyl ester] was run?
Its EC50 is 0.75 µM.

`CC(=O)N1CCN(c2ccc(Oc3ncnc4c3cnn4C3CCN(C(=O)OC(C)(C)C)CC3)cc2)CC1` [Example 67, 4-{4-[4-(4-Acetyl-piperazin-1-yl)-phenoxy]-pyrazolo[3,4-d]pyrimidin-1-yl}-piperidine-1-carboxylic acid tert-butyl ester] was tested. Which EC50 did it give?
Its EC50 is 0.85 µM.

`Cc1cc(Oc2ncnc3c2cnn3C2CCN(C(=O)OC(C)(C)C)CC2)ccc1NS(C)(=O)=O` [Example 68, 4-[4-(4-Methanesulfonylamino-3-methyl-phenoxy)-pyrazolo[3,4-d]pyrimidin-1-yl]-piperidine-1-carboxylic acid tert-butyl ester] was tested. Which EC50 did it give?
The EC50 was 0.73 µM.

With `CC(=O)Nc1cccc(Oc2ncnc3c2cnn3C2CCN(C(=O)OC(C)(C)C)CC2)c1` [Example 69, 4-[4-(3-Acetylamino-phenoxy)-pyrazolo[3,4-d]pyrimidin-1-yl]-piperidine-1-carboxylic acid tert-butyl ester] as the molecule, how does the EC50 read?
The EC50 was 0.6 µM.

With `CC(=O)Nc1ccc(Oc2ncnc3c2cnn3C2CCN(C(=O)OC(C)(C)C)CC2)cc1` [Example 70, 4-[4-(4-Acetylamino-phenoxy)-pyrazolo[3,4-d]pyrimidin-1-yl]-piperidine-1-carboxylic acid tert-butyl ester] as the molecule, how does the EC50 read?
The EC50 was 0.14 µM.

With `CC(C)(C)OC(=O)N1CCC(n2ncc3c(Oc4cccc5ncccc45)ncnc32)CC1` [Example 71, 4-[4-(Quinolin-5-yloxy)-pyrazolo[3,4-d]pyrimidin-1-yl]-piperidine-1-carboxylic acid tert-butyl ester] as the molecule, how does the EC50 read?
Its EC50 is 0.75 µM.

`CC(C)(C)OC(=O)N1CCC(n2ncc3c(Oc4cnc5[nH]ccc5c4)ncnc32)CC1` [Example 72, 4-[4-(1H-Pyrrolo[2,3-b]pyridin-5-yloxy)-pyrazolo[3,4-d]pyrimidin-1-yl]-piperidine-1-carboxylic acid tert-butyl ester] was tested. Which EC50 did it give?
The EC50 was 1.2 µM.

Which EC50 does the source give for `CC(C)(C)OC(=O)N1CCC(n2ncc3c(Oc4ccc5[nH]ccc5c4)ncnc32)CC1` [Example 74, 4-[4-(1H-Indol-5-yloxy)-pyrazolo[3,4-d]pyrimidin-1-yl]-piperidine-1-carboxylic acid tert-butyl ester] here?
Its EC50 is 1.9 µM.

With `CC(C)(C)OC(=O)N1CCC(n2ncc3c(Oc4ccc5ccc(=O)oc5c4)ncnc32)CC1` [Example 75, 4-[4-(2-Oxo-2H-chromen-7-yloxy)-pyrazolo[3,4-d]pyrimidin-1-yl]-piperidine-1-carboxylic acid tert-butyl ester] as the molecule, how does the EC50 read?
Its EC50 is 1.8 µM.

With `Cc1cc(=O)oc2cc(Oc3ncnc4c3cnn4C3CCN(C(=O)OC(C)(C)C)CC3)ccc12` [Example 76, 4-[4-(4-Methyl-2-oxo-2H-chromen-7-yloxy)-pyrazolo[3,4-d]pyrimidin-1-yl]-piperidine-1-carboxylic acid tert-butyl ester] as the molecule, how does the EC50 read?
The EC50 was 3 µM.

With `CC(C)(C)OC(=O)N1CCC(n2ncc3c(Oc4ccc5sccc5c4)ncnc32)CC1` [Example 77, 4-[4-(Benzo[b]thiophen-5-yloxy)-pyrazolo[3,4-d]pyrimidin-1-yl]-piperidine-1-carboxylic acid tert-butyl ester] as the molecule, how does the EC50 read?
The EC50 was 0.99 µM.

`CC(C)(C)OC(=O)N1CCC(n2ncc3c(Oc4ccc5c(c4)C=CS5(=O)=O)ncnc32)CC1` [Example 78, 4-[4-(1,1-Dioxo-1H-1λ^6-benzo[b]thiophen-5-yloxy)-pyrazolo[3,4-d]pyrimidin-1-yl]-piperidine-1-carboxylic acid tert-butyl ester] was tested. Which EC50 did it give?
Its EC50 is 0.75 µM.

With `CC(C)(C)OC(=O)N1CCC(n2ncc3c(Oc4ccc5c(c4)CCS5(=O)=O)ncnc32)CC1` [Example 79, 4-[4-(1,1-Dioxo-2,3-dihydro-1H-1λ^6-benzo[b]thiophen-5-yloxy)-pyrazolo[3,4-d]pyrimidin-1-yl]-piperidine-1-carboxylic acid tert-butyl ester] as the molecule, how does the EC50 read?
Its EC50 is 0.82 µM.

`CC(C)(C)OC(=O)N1CCC(n2ncc3c(Oc4ccc(-n5cncn5)cc4)ncnc32)CC1` [Example 80, 4-[4-(4-[1,2,4]Triazol-1-yl-phenoxy)-pyrazolo[3,4-d]pyrimidin-1-yl]-piperidine-1-carboxylic acid tert-butyl ester] was tested. Which EC50 did it give?
Its EC50 is 0.046 µM.

For `CC(C)(C)OC(=O)N1CCC(n2ncc3c(Oc4ccc(-n5ncnn5)cc4)ncnc32)CC1` [Example 82, 4-[4-(4-Tetrazol-2-yl-phenoxy)-pyrazolo[3,4-d]pyrimidin-1-yl]-piperidine-1-carboxylic acid tert-butyl ester], which EC50 is on record?
The EC50 was 1.8 µM.

How did the EC50 turn out when `CC(C)(C)OC(=O)N1CCC(n2ncc3c(Oc4ccc(-n5cnnn5)cc4)ncnc32)CC1` [Example 83, 4-[4-(4-Tetrazol-1-yl-phenoxy)-pyrazolo[3,4-d]pyrimidin-1-yl]-piperidine-1-carboxylic acid tert-butyl ester] was run?
Its EC50 is 1.6 µM.

Which EC50 does the source give for `Cc1nnnn1-c1ccc(Oc2ncnc3c2cnn3C2CCN(C(=O)OC(C)(C)C)CC2)cc1` [Example 84, 4-{4-[4-(5-Methyl-tetrazol-1-yl)-phenoxy]-pyrazolo[3,4-d]pyrimidin-1-yl}-piperidine-1-carboxylic acid tert-butyl ester] here?
The EC50 was 0.24 µM.

Which EC50 does the source give for `Cc1nc(-c2ccc(Oc3ncnc4c3cnn4C3CCN(C(=O)OC(C)(C)C)CC3)cc2)no1` [Example 85, 4-{4-[4-(5-Methyl-[1,2,4]oxadiazol-3-yl)-phenoxy]-pyrazolo[3,4-d]pyrimidin-1-yl}-piperidine-1-carboxylic acid tert-butyl ester] here?
Its EC50 is 0.55 µM.

For `CC(C)(C)OC(=O)N1CCC(n2ncc3c(Oc4ccc(-c5ccsc5)cc4)ncnc32)CC1` [Example 86, 4-[4-(4-Thiophen-3-yl-phenoxy)-pyrazolo[3,4-d]pyrimidin-1-yl]-piperidine-1-carboxylic acid tert-butyl ester], which EC50 is on record?
The EC50 was 0.49 µM.
